Counter-ions that a name gives are not always drawn.
Tested on: SL-induced scratching behavior in mice
Experiment: Inhibitory effect against sodium laurate-induced scratching behavior in mice
Format: in vivo, male ICR mice
Settings: topical; for (b) average percentage of the number of scratches for 60 minutes relative to solvent control group taken as 100% / (a) mean plus/minus standard deviation of the number of scratches for 60 minutes: 10% SL 50 μL on rostral back, 90 min later 50 μL of 2.5% by mass test substance in 50% ethanol; for (a) mean plus/minus standard deviation of the number of scratches for 60 minutes: solvent control 80±2; for judgment of effectiveness as HDC activation inhibitor (antipruritic agent); effective if number of scratches is 80% or less of solvent control: 10% SL, 2.5% by mass test substance in 50% ethanol
Protocol: Test substances were evaluated for their HDC activation inhibitor (antipruritic agent) effect on the basis of their inhibitory effect on mice's scratching behavior induced by irritation with SL. The test substances used were apigenin, luteolin, sterubin, prunetin, tannic acid, chlorogenic acid, resveratrol, diphenhydramine hydrochloride, and d-chlorpheniramine maleate. Among these substances, diphenhydramine hydrochloride and d-chlorpheniramine maleate were conventionally known as antihistamic agents and served as comparative test substances.
Procedure: the test animals used were male ICR mice aged 7-8 weeks. At least 3 days before the test was conducted, the mice were shaved over a 6 cm^2 (2×3 cm) area on the rostral back.
The mice were divided into test substance group (n=3 or 4) and solvent control group (n=3). Fifty microliters of a 10% SL aqueous solution was applied to the rostral back of the mice to induce the mice's scratching behavior. Ninety minutes after the application of the SL solution, fifty microliters of a solution prepared with 50% ethanol to give a test substance concentration of 2.5% by mass was applied to the rostral back of the mice of the test substance group, and fifty microliters of 50% ethanol alone was applied to that of the solvent control group. The scratching behavior in the mice was evaluated by the following procedure.
More specifically, the mice treated as above were housed in acrylic cages (26×18×30 cm) divided into 4 sections, one mouse per section, and after the mice were acclimated for at least 30 minutes in an unattended environment, the behavior of the mice was recorded on video for 60 minutes. The recorded video was reviewed to check for the scratching behavior of the mice and visually count the number of a series of scratching behaviors which consist of an animal scratching the rostral back with a posterior leg and putting down the leg. Additionally, in the untreated group (n=4), the mice shaved on the rostral back but not treated with any of a SL solution, a test substance or 50% ethanol were evaluated for their scratching behavior by the same procedure.
According to these evaluation results, the number of scratches for 60 minutes is about 80 to 90 times in the solvent control, diphenhydramine hydrochloride, and d-chlorpheniramine maleate groups, while that number is about 40 times or less in all the test substance groups from apigenin to resveratrol. Regarding the inhibitory effect of the test substances on the number of scratches in mice, a possible criterion for judgment is that a test substance be judged to be effective as the HDC activation inhibitor (antipruritic agent) of the present invention if the number of scratches in the test substance group is 80% or less of that in the solvent control group.
In addition, with regard to FIG. 4, the values of the following two variables are listed below for each group: (a) the mean plus/minus standard deviation of the number of scratches for 60 minutes, and (b) the average value for the percentage of the number of scratches for 60 minutes in each group relative to that in the solvent control group which is taken as 100%.

In the case of `O=c1cc(-c2ccc(O)c(O)c2)oc2cc(O)cc(O)c12` [Luteolin, luteolin], the “(b) average percentage of the number of scratches for 60 minutes relative to solvent control group taken as 100%” value was 43.0% and the “(a) mean plus/minus standard deviation of the number of scratches for 60 minutes” value (“(a) mean plus/minus standard deviation” below) was 34±3.
In the case of `Oc1ccc(/C=C/c2cc(O)cc(O)c2)cc1` [Resveratrol, 3,5,4′-trihydroxy-trans-stilbene], the “(b) average percentage of the number of scratches for 60 minutes relative to solvent control group taken as 100%” value was 31.7% and the “(a) mean plus/minus standard deviation” value was 25±14.
`CN(C)CCOC(c1ccccc1)c1ccccc1` [Diphenhydramine hydrochloride, diphenhydramine hydrochloride, reference compound] was tested, and the “(b) average percentage of the number of scratches for 60 minutes relative to solvent control group taken as 100%” value was 93.8%, the “(a) mean plus/minus standard deviation” value was 75±25 and the “judgment of effectiveness as HDC activation inhibitor (antipruritic agent); effective if number of scratches is 80% or less of solvent control” value was “not certain”.
With `O=C(OC[C@H]1O[C@@H](OC(=O)c2cc(O)c(O)c(OC(=O)c3cc(O)c(O)c(O)c3)c2)[C@H](OC(=O)c2cc(O)c(O)c(OC(=O)c3cc(O)c(O)c(O)c3)c2)[C@@H](OC(=O)c2cc(O)c(O)c(OC(=O)c3cc(O)c(O)c(O)c3)c2)[C@@H]1OC(=O)c1cc(O)c(O)c(OC(=O)c2cc(O)c(O)c(O)c2)c1)c1cc(O)c(O)c(OC(=O)c2cc(O)c(O)c(O)c2)c1` [Tannic acid, tannic acid] the “(b) average percentage of the number of scratches for 60 minutes relative to solvent control group taken as 100%” value was 53.7% and the “(a) mean plus/minus standard deviation” value was 43±22.
`COc1cc(O)c2c(=O)c(-c3ccc(O)cc3)coc2c1` [Prunetin, prunetin] was tested, and the “(b) average percentage of the number of scratches for 60 minutes relative to solvent control group taken as 100%” value was 52.7% and the “(a) mean plus/minus standard deviation” value was 42±11.
For `O=c1cc(-c2ccc(O)cc2)oc2cc(O)cc(O)c12` [Apigenin, apigenin], the “(b) average percentage of the number of scratches for 60 minutes relative to solvent control group taken as 100%” value was 40.5% and the “(a) mean plus/minus standard deviation” value was 32±5.
`O=C(/C=C/c1ccc(O)c(O)c1)O[C@@H]1C[C@](O)(C(=O)O)C[C@@H](O)[C@H]1O` [Chlorogenic acid, chlorogenic acid] was tested, and the “(b) average percentage of the number of scratches for 60 minutes relative to solvent control group taken as 100%” value was 50.8% and the “(a) mean plus/minus standard deviation” value was 41±8.
In the case of `CN(C)CC[C@@H](c1ccc(Cl)cc1)c1ccccn1.O=C(O)/C=C\C(=O)O` [D-chlorpheniramine maleate, d-chlorpheniramine maleate, reference compound], the “(b) average percentage of the number of scratches for 60 minutes relative to solvent control group taken as 100%” value was 113.6%, the “(a) mean plus/minus standard deviation” value was 91±28 and the “judgment of effectiveness as HDC activation inhibitor (antipruritic agent); effective if number of scratches is 80% or less of solvent control” value was “not certain”.
`COc1cc(O)c2c(c1)O[C@H](c1ccc(O)c(O)c1)CC2=O` [Sterubin, sterubin] was tested, and the “(b) average percentage of the number of scratches for 60 minutes relative to solvent control group taken as 100%” value was 44.4% and the “(a) mean plus/minus standard deviation” value was 35±14.
